This is an account of results in patent USRE32868E, “Antihyperlipidemic compositions” (Research Corporation, priority 1985, dated 1989).

The test system of the series is mice. Kind of series: Acute toxicity (LD50) in mice. Format: in vivo. The conditions noted are these: 2 g/kg. The source says:
They also are non-toxic. […] Moreover, there is no evidence that the weight of any of the major organs is altered as a result of treatment with compounds used in the invention.

With `CC(=O)CN1C(=O)c2ccccc2C1=O` [1-N--Phthalimidopropan-2-one], the deaths entry is listed as “no deaths were observed”.
